This test relates to RSV A2. Description: Screening for RSV inhibition using Viral ToxGlo assay (cytopathic effect inhibition in HEp-2 cells). It is filed as cell-based, Respiratory Syncytial Virus (RSV). Conditions: human respiratory syncytial virus; RSV A2 in HEp-2 cells, MOI 0.5, 72h p.i., cytopathic effect inhibition relative to virus control, Viral ToxGlo luminescence. How it is done:
Protocol for Screening Antiviral Compounds for RSV Inhibition and Cytotoxicity Using Viral ToxGlo Assay
HEp-2 cells were maintained in Eagle's minimum essential medium (EMEM) with Earle's BSS adjusted to contain 2 mM L-glutamine, 10% fetal bovine serum, 100 U/ml penicillin and 100 µg/ml streptomycin. For the purposes of the screening assay they were grown to 90% confluency, trypsinized and recovered. The trypsin was neutralised with cell culture media and cells were centrifuged at 150×g for 5 minutes before discarding the supernatant and resuspending cell pellet in assay media (EMEM with Earle's BSS adjusted to contain 2 mM L-glutamine, 2% fetal bovine serum and 100 U/ml penicillin and 100 µg/ml streptomycin). The cells were seeded into white clear-bottomed cell culture plates at a density of 1.5×10^4 cells/well in 50 μl and 4×10^3 cells/well in 25 μl for 96 well plates and 384 well plates respectively. For the media/background control column assay media only was added. Cell plates were placed in a humid chamber and incubated overnight at 37° C./5% CO2. After overnight incubation cells were checked for confluency and healthy appearance.
Test articles were made up at 10× test concentration in a maximum DMSO concentration of 10% (final assay concentration maximal 1% DMSO) and added to the cell plates in volumes of […] for 96 well plates and 5 μl for 384 well plates. For cell control and virus control wells the test article solvent only was added. Virus or assay media for cytotoxicity test wells and media/cell control wells was added immediately after test articles at an MOI of […] for 96 and 384 well plates respectively. Virus suspension was prepared by thawing RSV A2 frozen stocks and diluting to the required concentration of plaque forming units in assay media on ice.
Cell plates were further incubated inside a humid chamber for 72h p.i at 37° C./5% CO2. After the incubation period cells were observed under the microscope to check for characteristic cytopathic effect in virus control wells and healthy cells in the cell control wells. After plates were adjusted to room temperature 20/40 μl Viral ToxGlo (Promega) was added to each well of the 384/96 well cell plates. Plates were incubated at room temperature, protected from light on a plate rocker for 20 minutes before measuring the luminescence on a spectrophotometer (Biotek Synergy HTX).
For orientation: Protection from cytopathic effect is a common read-out in antiviral testing.
`CC(C)C1(NC(=O)c2cccc(Nc3ccc(C(=O)N=C4NCCN4)cc3C3CC3)c2)CC1` [Compound 7]: the EC50 came out at 1.6 nM.

With `CC1(NC(=O)c2cccc(Nc3ccc(C(=O)N=C4NCCN4)cc3C3CC3)c2)CC1` [Compound 14, 3-cyclopropyl-N-[(2Z)-imidazolidin-2-ylidene]-4-({3-[(1-methylcyclopropyl)carbamoyl]phenyl}amino)benzamide], the EC50 worked out at 14.4 nM.

Regarding `O=C(N=C1NCCN1)c1ccc(Nc2cccc(C(=O)N3CCOCC3)c2Cl)c(C2CCOC2)c1` (stereo not drawn) [Compound 15, 4-{[2-chloro-3-(morpholine-4-carbonyl)phenyl]amino}-N-[(2E)-imidazolidin-2-ylidene]-3-(oxolan-3-yl)benzamide], the EC50 was found to be 14.9 nM.

As for `O=C(N=C1NCCN1)c1ccc(Nc2cccc(C(=O)N3CCOCC3)c2Cl)c(C(F)(F)F)c1` [Compound 16, 4-{[2-chloro-3-(morpholine-4-carbonyl)phenyl]amino}-N-[(2E)-imidazolidin-2-ylidene]-3-(trifluoromethyl)benzamide], the EC50 was determined as 15.6 nM.

Turning to `CC(C)NC(=O)c1cccc(Nc2ccc(C(=O)/N=C3\NCCN3C)cc2C(C)(C)C)c1` [Compound 17, 3-tert-butyl-N-[(2E)-1-methylimidazolidin-2-ylidene]-4-({3-[(propan-2-yl)carbamoyl]phenyl}amino)benzamide], the EC50 was 19.8 nM.

For `CC1(NC(=O)c2cccc(Nc3ccc(C(=O)N=C4NCCN4)cc3C3CCC3)c2)CC1` [Compound 18, 3-cyclobutyl-N-[(2Z)-imidazolidin-2-ylidene]-4-({3-[(1-methylcyclopropyl)carbamoyl]phenyl}amino)benzamide], the EC50 was 21.2 nM.

Turning to `CC(C)NC(=O)c1cccc(Nc2ccc(C(=O)N=C3NCCN3)cc2C(C)(C)C)c1` [Compound 19, 3-tert-butyl-N-[(2E)-imidazolidin-2-ylidene]-4-({3-[(propan-2-yl)carbamoyl]phenyl}amino)benzamide], the EC50 amounted to 22.8 nM.

For the molecule `CC(C)(C)C(=O)Nc1cccc(Nc2ccc(C(=O)N=C3NCCN3)cc2C(C)(C)C)c1` [Compound 20, 3-tert-butyl-4-{[3-(2,2-dimethylpropanamido)phenyl]amino}-N-[(2Z)-imidazolidin-2-ylidene]benzamide], the EC50 was 23.5 nM.

For the molecule `CC1(C(=O)Nc2cccc(Nc3ccc(C(=O)N=C4NCCN4)cc3C3CC3)c2)CC1` [Compound 21, 3-cyclopropyl-N-[(2Z)-imidazolidin-2-ylidene]-4-{[3-(1-methylcyclopropaneamido)phenyl]amino}benzamide], the EC50 came out at 25.8 nM.

As for `O=C(N=C1NCCN1)c1ccc(Nc2cccc(OCCCC3CCCCC3)c2)c(C2CC2)c1` [Compound 22, 4-{[3-(3-cyclohexylpropoxy)phenyl]amino}-3-cyclopropyl-N-[(2E)-imidazolidin-2-ylidene]benzamide], the EC50 was determined as 26 nM.

As to `O=C(N=C1NCCN1)c1ccc(Nc2cccc(OCC3COCCO3)c2Cl)c(C2CC2)c1` (stereo not drawn) [Compound 23, 4-({2-chloro-3-[(1,4-dioxan-2-yl)methoxy]phenyl}amino)-3-cyclopropyl-N-[(2E)-imidazolidin-2-ylidene]benzamide], the EC50 was 30.3 nM.

With `CN1CCN/C1=N\C(=O)c1ccc(Nc2cccc(C(=O)NC3(C)CC3)c2)c(C(C)(C)C)c1` [Compound 24, 3-tert-butyl-4-({3-[(1-methylcyclopropyl)carbamoyl]phenyl}amino)-N-[(2E)-1-methylimidazolidin-2-ylidene]benzamide], the EC50 was 31.7 nM.

Regarding `O=C(N=C1NCCN1)c1ccc(Nc2cccc(C(=O)NC3CC3)c2Cl)c(C2CC2)c1` [Compound 25, 4-{[2-chloro-3-(cyclopropylcarbamoyl)phenyl]amino}-3-cyclopropyl-N-[(2Z)-imidazolidin-2-ylidene]benzamide], the EC50 came out at 32.2 nM.

As for `CC(C)C(=O)Nc1cccc(Nc2ccc(C(=O)N=C3NCCN3)cc2C2CC2)c1` [Compound 26, 3-cyclopropyl-N-[(2E)-imidazolidin-2-ylidene]-4-{[3-(2-methylpropanamido)phenyl]amino}benzamide], the EC50 stood at 34.4 nM.

As to `COc1c(Nc2ccc(C(=O)N=C3NCCN3)cc2C2CC2)cccc1C(=O)NCCC(C)C` [Compound 27, 3-cyclopropyl-N-[(2Z)-imidazolidin-2-ylidene]-4-({2-methoxy-3-[(3-methylbutyl)carbamoyl]phenyl}amino)benzamide], the EC50 turned out to be 41.4 nM.

Take `O=C(N=C1NCCN1)c1ccc(Nc2cccc(C(=O)NC3CCOC3)c2Cl)c(C2CC2)c1` (stereo not drawn) [Compound 28, 4-({2-chloro-3-[(oxolan-3-yl)carbamoyl]phenyl}amino)-3-cyclopropyl-N-[(2Z)-imidazolidin-2-ylidene]benzamide]: the EC50 stood at 42.1 nM.

Turning to `C=C(C)c1cc(C(=O)N=C2NCCN2)ccc1Nc1cccc(C(=O)NCCC(C)C)c1` [Compound 29, N-[(2E)-imidazolidin-2-ylidene]-4-({3-[(3-methylbutyl)carbamoyl]phenyl}amino)-3-(prop-1-en-2-yl)benzamide], the EC50 was found to be 42.3 nM.

Turning to `CC(C)(O)c1cc(C(=O)N=C2NCCN2)ccc1Nc1cccc(C(=O)N2CCOCC2)c1C(F)(F)F` [Compound 30, 3-(2-hydroxypropan-2-yl)-N-[(2E)-imidazolidin-2-ylidene]-4-{[3-(morpholine-4-carbonyl)-2-(trifluoromethyl)phenyl]amino}benzamide], the EC50 amounted to 42.7 nM.

For `CCC1(NC(=O)c2cccc(Nc3ccc(C(=O)N=C4NCCN4)cc3C3CC3)c2)CC1` [Compound 31, 3-cyclopropyl-4-({3-[(1-ethylcyclopropyl)carbamoyl]phenyl}amino)-N-[(2Z)-imidazolidin-2-ylidene]benzamide], the half-maximal effective concentration (EC50) turned out to be 47.7 nM.

On to `CC(C)NC(=O)c1cc(F)cc(Nc2ccc(C(=O)N=C3NCCN3)cc2C2CC2)c1` [Compound 32, 3-cyclopropyl-4-({3-fluoro-5-[(propan-2-yl)carbamoyl]phenyl}amino)-N-[(2Z)-imidazolidin-2-ylidene]benzamide], for which the EC50 was found to be 49.2 nM.

For `CC(C)(C)c1cc(C(=O)N=C2NCCN2)ccc1Nc1cccc(C(=O)NCCC2CCCOC2)c1` (stereo not drawn) [Compound 33, 3-tert-butyl-N-[(2E)-imidazolidin-2-ylidene]-4-[(3-{[2-(oxan-3-yl)ethyl]carbamoyl}phenyl)amino]benzamide], the EC50 came out at 50.2 nM.

For `CC(C)NC(=S)c1cccc(Nc2ccc(C(=O)N=C3NCCN3)cc2C2CC2)c1` [Compound 34, 3-cyclopropyl-N-[(2Z)-imidazolidin-2-ylidene]-4-({3-[(propan-2-yl)carbamothioyl]phenyl}amino)benzamide], the EC50 is 50.4 nM.

For the molecule `CC(C)(C)c1cc(C(=O)N=C2NCCN2)ccc1Nc1cccc(C(=O)NCCC2CCCCO2)c1` (stereo not drawn) [Compound 35, 3-tert-butyl-N-[(2E)-imidazolidin-2-ylidene]-4-[(3-{[2-(oxan-2-yl)ethyl]carbamoyl}phenyl)amino]benzamide], the EC50 turned out to be 51.6 nM.

On to `CC(C)NC(=O)c1cccc(Nc2ccc(C(=O)/N=C3\NCCN3C)cc2C2CC2)c1` [Compound 36, 3-cyclopropyl-N-[(2E)-1-methylimidazolidin-2-ylidene]-4-({3-[(propan-2-yl)carbamoyl]phenyl}amino)benzamide], for which the EC50 came out at 55.4 nM.

What is called EC50 is the concentration at which the effect is half-maximal.

For the origin of these results see patent US12617756B2 (ABIVAX, priority 2019, dated 2026).
